The assay relates to rats with hybrid hyperlipidemia. The assay can be described thus: Blood lipids in hybrid hyperlipidemia rat model. The class given is in vivo, SD rat. The following applies: 3.3 mg/kg, compared with the modeling control group, at each time point. As for the experimental part: Grouping: After quarantine, the animals were randomized into a negative control group of 10 animals and modeling groups of the rest. After the modeling groups were given modeling feed for 2 weeks, the animals were anesthetized by isoflurane inhalation without fasting. The blood was collected from orbital venous sinus and was centrifuged at 3000 rpm for 10 min to separate the serum. The total cholesterol (TC), triglyceride (TG), low-density lipoprotein cholesterol (LDL-C) and high-density lipoprotein cholesterol (HDL-C) levels were determined. Animals with lower TG levels were eliminated. […]
2.8.1 High-fat and high-cholesterol modeling feed: A maintenance feed containing 20.0% of sucrose, 5% of lard, 1.0% of cholesterol, 0.1% of sodium cholate, appropriate amounts of casein, calcium bicarbonate, powdered stone and the like. Other than crude fat, in the modeling feed, moisture, crude protein, crude fat, crude fiber, crude ash, calcium, phosphorus and calcium:phosphorus all satisfied the national standard for maintenance feed. The feed was provided by Guangdong Medical Laboratory Animal Center. […]
2.8.6.3 Blood lipids: After 2, 4, 7 and 9 weeks of treatment (d14, d28, d52 and d65), the animals were anesthetized by isoflurane inhalation without fasting. […] The TC, TG, LDL-C and HDL-C levels were determined. […]

SMILES strings stand for the structures.

As for `CC(C)c1c(C(=O)Nc2ccccc2)c(-c2ccccc2)c(-c2ccc(F)cc2)n1CC[C@@H](O)C[C@@H](O)CC(=O)O` [atorvastatin calcium tablet, atorvastatin calcium], the “effect on reducing blood lipids (summary)” value was “no significant effect on reducing the blood lipids”.
